Test results from US8426136B2, “Epigenetic modifications at TNFα as biomarkers for sensitivity to Smac mimetic-induced apoptosis” (Joyant Pharmaceuticals, Inc., priority 2009, dated 2013).

Legend:
[1] = tested on: TNFα mRNA; experiment: TNFα mRNA by semiquantitative RT-PCR in Colo205 cells; format: cell-based, human
Description: (§1) This procedure describes the semi-quantitative measurement of human TNFα mRNA levels in human cell culture.
(§2) Cell Treatment: cells were plated in 6 well dishes at 1.5×10^5 cells/ml in a volume of 2.5 ml, next day cells were treated −/+50 ul of 5 μM Smac Mimetic, JP1010, (final concentration: 100 nM) for 4 hr.
(§3) RNA Isolation: cells were washed 2× with 2 ml PBS followed by isolation of RNA from 6 well dishes using Qiagen RNAeasy kit or TRIzol reagent (Invitrogen) according to manufacturer's protocol. RNA isolation with TRIzol was conducted by adding 1 ml of TRIzol reagent to each well and pipetting up and down several times before transferring lysate to 1.5 ml microfuge tube. […] RNA concentration was measured. […]
(§4) Semi-quantitative RT-PCR for TNFα and Actin were performed as follows: Control semi-quantitative Actin PCR were conducted in a 25 ul reaction mixture with the following cycle condition: 94° C. […] TNFa semi quantitative PCR were conducted in a 25 ul reaction mixture with the following cycle conditions: 94° C.-2 min, 30-35 cycles (depending on cell line) of 94° C.-30 sec, 59° C.-30 sec, 72° C.-1 min, followed by 72° C. for 10 min. […]

[2] = tested on: cIAP2 mRNA; experiment: cIAP2 mRNA level in Colo205 cells; format: cell-based; settings: MS-275 alone
[3] = tested on: acetylated Histone H4 levels at the TNFα locus; experiment: ChIP of acetylated histone H4 at the TNFα locus in MDA-MB231 cells; format: cell-based; settings: 5 mM NaBu
Description: Purpose: This procedure evaluates the localization of specific proteins or their modified forms on chromatin. For our purpose to specifically evaluate the levels of modified histones and cofactors bound to the Tumor Necrosis Factor (TNFa) gene promoter.
ChIP Lysis buffer contained 1% SDS, 10 mM EDTA, 50 mM Tris-HCl, pH8.1, 1× protease inhibitor cocktail (Roche). ChIP Dilution buffer contained 1% Triton x-100, 2 mM EDTA, 150 mM NaCl, 20 mM Tris-HCl, pH8.1, 1× protease inhibitor cocktail (Roche). Wash Buffer I contained 0.1% SDS, 1% Triton x-100, 2 mM EDTA, 150 mM NaCl, 20 mM Tris-HCl, pH8.1. Wash Buffer II contained wash buffer I with 500 mM NaCl. Wash Buffer III contained 0.25M LiCl, 1% NP-40, 1% deoxycholate, 1 mM EDTA, 10 mM Tris-HCl, pH8.1. TE buffer contained 10 mM Tris-HCl, pH 7.5, 0.1 mM EDTA. ChIP Extraction buffer contained 1% SDS, 0.1M NaHCO3. Antibodies used include anti-histone H3 (Abcam, ab1791), anti-hyperacetylated histone H4 (Millipore, 06-946), anti-dimethyl-histone H3k4 (Millipore, 07-030), anti-dimethyl histone H3K9 (Abcam, ab1220), anti-histone H4 (Millipore, 05-858), anti-acetylated H3 (Millipore, 06-599), anti-acetylated H4 (Millipore, 06-866).
Cells were plated on either 10 cm or 15 cm tissue culture dishes (˜1×10^6). At 80-100% confluency cells were crosslinked by the addition of 37% formaldehyde (final concentration 1%) directly to the cell medium. […]

[4] = tested on: TNFα mRNA; experiment: TNFα mRNA by RT-PCR in H2073 cells; format: cell-based, human; settings: FIG. 5 legend
Description: as §1, §2, §3, §4

Row | SMILES | Smac mimetic-induced TNFα production ([1]; FIG. 4 legend) | production of TNFα mRNA ([1]; agent alone) | mRNA level of cIAP2 [2] | increase of the level of acetylated H4 [3] | Smac mimetic-induced TNFα production [4]
1 | Nc1ccccc1NC(=O)c1ccc(CNC(=O)OCc2cccnc2)cc1 [MS-275] | Primes | increased | increased | – | –
2 | CCCC(=O)[O-].[Na+] [NaBu, Sodium butyrate] | – | – | – | 4-5 fold | increases
